Patent US20090257988A1, “METHODS AND COMPOSITIONS FOR ACCELERATING THE GENERATION OF REGULATORY T CELLS EX VIVO” (USC Stevens, Hughes Center, priority 2008, published 2009)
“Also recorded” adds a separate entry of the source.

Tests used:
CD4+ cells = assay: Proliferation of cultured CD4+ cells upon re-stimulation; type: cell-based, human; settings: after 6 days of culture
Source text: A further phenotypic property of nTregs is poor proliferative responsiveness, which is often accompanied by lowered production of certain pro-proliferation cytokines, such as IL-2. Other cytokines, such as IL-4, IFNγ and TFN-α are also associated with proliferation, although they are generally produced in low levels even in proliferating cells. Proliferation response can be measured using methods known in the art, such as thymidine uptake assays and assays of carboxyfluorescein succinimidyl ester (CFSE) dilution.
As discussed above, one phenotypic property of nTregs is poor proliferative responsiveness. Human naïve CD4+ cells stimulated with IL-2 and TGF-β become FOXP3+, but are only partially differentiated suppressor cells. […] Since the only source of pro-proliferative cytokines are the iTregs themselves, the lack of proliferation by azacytidine-treated cells is consistent with poor cytokine production, which is a distinguishing characteristic of nTregs.

[1] = test system: memory CD4+ cells (CD45RO+); assay: Stimulation of memory CD4+ cells (CD45RO+) with or without azacytidine (Example 7); type: cell-based
Method: In addition to naïve CD4+ cells (also referred to as CD45RA+ cells), memory CD4+ cells (CD45RO+) are stimulated and assessed for the effect of azacytidine and azacytidine+retinoic acid on their phenotypic properties. These memory CD4+ cells represent a resting but previously activated population. The cells are stimulated with anti-CD3/anti-CD28 beads (at 1 in 10) with or without azacytidine (1 μM), azacytidine combined with all-trans retinoic acid and also with or without TGF-β (5 ng/ml). After 6 days, the cells are depleted of stimulating beads and assayed for FOXP3 expression, suppressor activity and proliferative activity. Greater than 50% of the stimulated cells express FOXP3. Enhanced FOXP3 expression in cells cultured in medium alone may be due to TGF-β provided by non-T cells in the culture.
Remaining cells are restimulated with anti-CD3/anti-CD28 (at 1 in 10) with or without fresh azacytidine and/or azacytidine plus retinoic acid, such that there is a group from each CD4+ subset that is exposed to azacytidine/azacytidine+retinoic acid for the first time. After a further 6 days, the cells are assayed again for FOXP3 expression, suppressor activity and proliferative activity.

responder T cells = assay: Suppressive activity of stimulated CD4+ cells on proliferation of CFSE-labeled responder T cells; type: cell-based, human; settings: FIG. 4; cells stimulated with vs without azacytidine; ratio 1:10 to responder cells, soluble anti-CD3, 3 days
Method: Each population of stimulated cells was assayed for suppressive activity by culturing the cells with responder T cells labeled with carbofluorescein diacetate succinimydil ester (CFSE) at a ratio of 1:10. The cells were stimulated with soluble anti-CD3 for 3 days and proliferation of the responder cells was measured by dilution of CFSE.
The induced Tregs were added to T respond cells (1:4 ratio) and suppressive activity was calculated.

naïve CD4+ cells [2] = assay: FOXP3 expression by flow cytometry in naïve CD4+ cells stimulated with anti-CD3/CD28 beads; type: cell-based, human
Source text: FIG. 1 is a typical example of FOXP3 expression at day 6 of cultures of non-regulatory T cells. In the experiments represented in this figure, naïve CD4+ cells were stimulated with 3/28 beads (1 bead per 10 T cells) with (right panel) or without (left panel) TGF-β for 6 days.
This inhibitor blocks TGF-β type I receptor signaling. The figures in FIG. 2A provide data from flow cytometry analysis of stimulated CD4+ cells. Naïve CD4+ cells were stimulated with anti-CD3/CD28 beads for 5 or 6 days in medium only (left-most panel), in the presence of 5 ng/ml TGF-β (middle panel) or with 1 μM azacytidine (right-most panel). The graphs also show data from cells stimulated with and without ALK5i (10 μM).
FIG. 3A provides flow cytometry data from naïve CD4 cells stimulated with anti-CD3/CD28 beads for 5 or 6 days in (in order of the panels from left to right) medium alone, in medium containing TGF-β, in medium containing azacytidine, and in medium containing azacytidine and TGF-β. The arrows indicate the […] after stimulation with anti-CD3/anti-CD28.
Naïve CD4+ cells were stimulated with anti-CD3/28 beads as described above. […] FOXP3 expression among CD4+CD25+ cells was determined by flow cytometry. FIG. 5A is a bar graph showing the indicated mean±SEM for 5 independent experiments. FIG. 5B is representative of experiments in 0.1 μM ATRA.
The traces identified with arrows indicate data from cells expressing FOXP3 after stimulation, and percentage of FOXP3 expressing cells is indicated in each figure.

CD4+GFP-cells = assay: FOXP3 induction in CD4+GFP- cells of GFP-FOXP3 mice (Example 10); type: cell-based; settings: CD4+GFP- cells sorted from GFP-FOXP3 mice
Method: This assessment utilizes mice engineered to express a GFP-FOXP3 fusion protein. CD4+GFP-cells isolated by cell sorting are stimulated in the presence or absence of regulatory compositions containing azacytidine and regulatory compositions containing azacytidine and retinoic acid. Stimulation is also tested with such regulatory compositions with and without TGF-β. […] Purified populations of FOXP3+ cells are isolated by cell sorting. As a positive control, nTregs are also sorted from fresh spleens and lymph nodes. Both iTregs and nTregs cells (5×10^6) are injected into congenic CD45.1-mice. For the azacytidine-generated iTreg there are enough cells to have three to four mice per group. There are at least two mice per group for the nTregs. In some experiments, nTregs are expanded in culture to obtain sufficient numbers of cells.

naïve CD4+ cells [3] = assay: Surface marker phenotype (CD45RO, CD103, CD127) of stimulated naïve CD4+ cells; type: cell-based, human; settings: FIG. 7; after 6 days of stimulation
Source text: Naïve T cells display the CD45RA+ marker and lack CD45RO. […] Finally, nTregs characteristically express the αEβ7 integrin (CD103) induced by TGF-β.

naïve CD4+ cells [4] = assay: Membrane-bound TGF-β staining after re-stimulation of naïve CD4+ cells; type: cell-based, human; settings: FIG. 8; 6 days with agents, re-stimulated with anti-CD3/28 beads
Source text: Naïve CD4+ cells were stimulated with agents indicated for 6 days and re-stimulated with anti-CD3/28 beads and stained with fluorochrome-conjugated anti-TGF-β for membrane-bound TGF-β.

[5] = azacytidine 1 μM, after repeated stimulation

Molecule: 2′-Deoxy-5-azacytidine; 5-Aza-2′-deoxycytidine
- proliferation upon re-stimulation (CD4+ cells): fail to proliferate upon re-stimulation
- FOXP3 expression vs total T cells stimulated without azacytidine [1, 5]: markedly greater
- suppressive activity vs total T cells stimulated without azacytidine [1, 5]: markedly greater
- suppressive activity (responder T cells): significantly more suppressive; also recorded: develop suppressive activity
- FOXP3 expression (percentage of FOXP3 positive cells) (naïve CD4+ cells [2]; FIG. 2A, anti-CD3/CD28 beads 5 or 6 days, 1 μM azacytidine, no exogenous TGF-β, vs medium only): enhances FOXP3 expression to a similar extent as the enhancement seen with TGF-β; also recorded: markedly augments the percentage of FOXP3 positive cells

Molecule: CC1=C(/C=C/C(C)=C/C=C/C(C)=C/C(=O)O)C(C)(C)CCC1 [retinoic acid, all-trans retinoic acid]
- FOXP3 expression in stimulated CD4+ cells (naïve CD4+ cells [2]; FIG. 5, retinoic acid added to TGF-β and azacytidine, ATRA 0.1-0.5 μM, 4 days, CD4+CD25+ cells): enhances FOXP3 expression

Molecule: TGF-β
- FOXP3 expression (CD4+GFP-cells): induces FOXP3 expression
- proliferation of stimulated cells ([1]; TGF-β 5 ng/ml, 6 days): hyperproliferative and expand markedly
- cells that acquired the CD45RO marker (naïve CD4+ cells [3]): 50%
- expression of membrane-bound TGF-β (naïve CD4+ cells [4]): some T cells primed with TGF-β now expressed this cytokine on their cell surface; also recorded: some T cells contacted with TGF-β prior to stimulation now expressed this cytokine on their cell surface
- cells which express FOXP3 (naïve CD4+ cells [2]; FIG. 1, 3/28 beads (1 bead per 10 T cells), 6 days, with vs without TGF-β): twice as many cells which express FOXP3
